Data on 14 compounds can be found in US9975869B2 (Sphaera Pharma Pvt. Ltd., priority 2013, dated 2018).

The assay has as its system AMPK. Briefly: AMPK activation potential, cell based ELISA (Phospho-AMPKα Thr172) in Hep G2 cells. As to conditions: 10 nm concentration; Hep G2 liver cells; % activity with DMSO control as 100%; 30 min incubation for Epicatechin analogs. On the procedure: Testing of Compounds for Their AMPK Activation Potential
AMPK activation potential of the compounds was evaluated using cell based ELISA. Hepatoma (Hep G2) liver cells were maintained in a T 75 culture flask-containing 25 mM DMEM+10% fetal calf serum. The cells were maintained in a T 75 culture flask-containing medium (DMEM+10% fetal calf serum). On reaching a confluence of 70 to 80%, the cells were seeded in a 96 well plate at a density of 40,000 cells per well in 25 mM DMEM+10% FCS medium. The plates were then incubated at 37° C. with 5% CO2 for 24 hours. Various concentrations of drugs were prepared in DMSO and diluted to required concentration with the medium and incubated at 37° C. with 5% CO2 for 30 min and 1 h for Epicatechin analogs and 11-BHP analogs respectively. Metformin was used as positive control. Cells were fixed with 4% formaldehyde for 30 minutes at room temperature and washed three times with PBS containing 0.1% Triton X-100. Endogenous peroxidase was quenched with 1% H2O2 in PBS-T (0.1% Tween 20) for 30 minutes and washed three times in PBS-T. Cells were blocked with 1% BSA in PBS-T for 1 hour. The cells were incubated with 1:1000 dilution primary antibody (Phospho-AMPKα (Thr172) Rabbit mAb, Cell Signaling in PBS-T containing 5% BSA at 4° C. overnight. The cells were then washed three times with PBS-T for 5 minutes and incubated with 1:1000 dilution secondary antibody (Anti-rabbit IgG, HRP-linked Antibody, Cell Signaling) in PBS-T with 1% BSA for 1 hour at RT. Cells were washed three times with PBS-T for 5 minutes The cells were incubated with 100 μl TMB substrate solution for 30 minutes and the reaction was stopped with 100 μl of 2N H2SO4. Then the plate was read at 450 nm using ELISA plate reader and absorbance recorded. % activity was calculated using DMSO control as 100%. All compounds of the present invention, as exemplified and encompassed are found to be active.
For orientation: In an ELISA, binding on a coated surface is turned into a signal by an enzyme label.

Consider `COc1ccc([C@H]2Oc3cc(OC)ccc3C[C@H]2O)cc1` [Compound 1070, (2R,3R)-7-methoxy-2-(4-methoxyphenyl)chroman-3-ol], for which the “% pAMPK(at 10 nm)” value was found to be 126%.

As for `CC(C)NC(=O)Oc1ccc([C@H]2Oc3cc(O)cc(O)c3C[C@H]2O)cc1OC(=O)NC(C)C` [Compound 1044, 4-((2R,3R)-3,5,7-trihydroxychroman-2-yl)-1,2-phenylene bis(isopropylcarbamate)], the “% pAMPK(at 10 nm)” value was 96%. Consider `Cc1cc([C@H]2Oc3cc(O)cc(O)c3C[C@H]2O)cc(O)c1O` (racemic) [Compound 1035, Cis (±) (2-(3,4-dihydroxy-5-methylphenyl)chromane-3,5,7-triol], for which the “% pAMPK(at 10 nm)” value turned out to be 102%. The figure for `COC(=O)Oc1ccc([C@H]2Oc3cc(O)cc(O)c3C[C@H]2O)cc1OC(=O)OC` [Compound 1049, dimethyl (4-((2R,3R)-3,5,7-trihydroxychroman-2-yl)-1,2-phenylene) bis(carbonate)] is 105%. `COc1cc([C@H]2Oc3cc(O)ccc3C[C@H]2O)ccc1C` (stereo in doubt) [Compound 1026, 2-(3-methoxy-4-methylphenyl)chromane-3,7-diol]: the “% pAMPK(at 10 nm)” value amounted to 101%. The same measure for `Oc1ccc([C@H]2Oc3cc(O)ccc3C[C@H]2O)cc1` (racemic) [Compound 1004, Cis (±) 2-(4-hydroxyphenyl)chroman-3,7-diol]: 114%; for `[2H][C@]1(c2ccc(O)c(O)c2)Oc2cc(O)cc(O)c2C[C@H]1O` [Compound 1037, (2R,3R)-2-(3,4-dihydroxyphenyl)chromane-2-d-3,5,7-triol]: 110%. The figure for `O=C(NCc1ccccc1)Oc1ccc([C@H]2Oc3cc(O)cc(O)c3C[C@H]2O)cc1OC(=O)NCc1ccccc1` [Compound 1059, 4-((2R,3R)-3,5,7-trihydroxychroman-2-yl)-1,2-phenylene bis(benzylcarbamate)] is 144%; for `Cc1ccc([C@H]2Oc3cc(O)ccc3C[C@H]2O)cc1O` [Compound 1069, (2R,3R)-2-(3-hydroxy-4-methylphenyl)chromane-3,7-diol] it is 110%.

As for `Oc1cc(O)c2c(c1)O[C@H](c1ccc(O)c(F)c1)[C@H](O)C2` (racemic) [Compound 1034, Cis (±) 2-(3-fluoro-4-hydroxyphenyl)chromane-3,5,7-triol], the “% pAMPK(at 10 nm)” value was 107%. The figure for `COc1cc(C2Oc3cc(O)ccc3C[C@H]2O)ccc1F` (stereo in doubt) [Compound 1028, 2-(4-fluoro-3-methoxyphenyl)chromane-3,7-diol] is 101%.

On to `CCOC(=O)O[C@@H]1Cc2c(O)cc(O)cc2O[C@@H]1c1ccc(O)c(O)c1` [Compound 1053, (2R,3R)-2-(3,4-dihydroxyphenyl)-5,7-dihydroxychroman-3-yl ethyl carbonate], for which the “% pAMPK(at 10 nm)” value stood at 94%. The figure for `Oc1ccc([C@H]2Oc3ccccc3C[C@H]2O)cc1O` (racemic) [Compound 1002, Cis (±) 3-hydroxychroman-2-yl)benzene-1,2-diol] is 108%; for `O=C(OCc1ccccc1)Oc1ccc([C@H]2Oc3cc(O)cc(O)c3C[C@H]2O)cc1OC(=O)OCc1ccccc1` [Compound 1048, dibenzyl (4-((2R,3R)-3,5,7-trihydroxychroman-2-yl)-1,2-phenylene) bis(carbonate)] it is 103%.
